These results are taken from publication PMC10046907 (Current Issues in Molecular Biology, 2023).

One series has as its system influenza vRNA (NP gene). The series is classed as cell-based, influenza virus.
A further series deals with influenza virus NS1. The series is classed as cell-based.
The test system of series [1] is influenza RNP export from the nucleus to the cytoplasm. As to the kind of experiment: Confocal fluorescence imaging of influenza RNP nuclear export. Format: cell-based, influenza virus (H1N1). Particulars: 20 μM, H1N1-infected MDCK cells, 10 h. On the procedure: MDCK cells were grown on a chamber slide, pre-coated with poly-L-lysine, and the monolayers were infected with influenza virus at 0.001 MOI for 1 h. The virus was removed and replaced by EMEM containing 10 μg/mL trypsin and each compound under test. All cells were cultured for 10 h at 37 °C in a 5% CO2 atmosphere and fixed in 4% paraformaldehyde solution for 15 min at room temperature. After washing, the cells were incubated at 37 °C for 1 h with an FITC-conjugated nucleoprotein (NP)-specific monoclonal antibody against influenza virus (Millipore, MA, USA) diluted at 1:50. After washing with PBS, cells were counterstained with 500 nM propidium iodide solution. Slides were mounted using the SlowFade Gold antifade reagent (Invitrogen, CA, USA). Confocal fluorescence imaging was performed using the Carl Zeiss LSM 510 META confocal microscope (Carl Zeiss Inc., Jena, Germany).
Figure 3 18-Hydroxyferruginol (1) and 18-oxoferruginol (2) inhibit the export of the influenza virus RNP complex from the nucleus to the cytoplasm. MDCK cells were infected with H1N1 at 0.001 MOI in the presence of 0.5% DMSO, 50 μM LY294002, 20 μM 18-hydroxyferruginol (1), or 20 μM 18-oxoferruginol (2). After 10 h, the cells were fixed in 4% paraformaldehyde. After blocking, the cells were incubated with the anti-NP antibody (green). Propidium iodide was used as a nuclear counterstain (red). Scale bar = 10 µm.

Series [2] has as its system A/PR/8/34 (H1N1). The conditions noted are these: dog.
Series [3] has as its target neuraminidase from A/Chicken/Korea/MS96/96 (H9N2) (Influenza A virus (A/Chicken/Korea/MS96/96(H9N2)), UniProt Q9J458). Format: biochemical, influenza A viruses. The conditions noted are these: read-out: Neuraminiase IC50.
Series [4] deals with A/Chicken/Korea/MS96/96 (H9N2). As to the kind of experiment: in vitro. Particulars: dog, SI (selective index, CC50/IC50).
The next series can be described thus: in vitro. The conditions noted are these: dog.
Series [5] has as its system A/PR/8/34 (H1N1). As to the kind of experiment: in vitro. The conditions noted are these: dog, SI (selective index, CC50/IC50).
Series [6] deals with neuraminidase from A/PR/8/34 (H1N1) (Influenza A virus, UniProt P03468). As to the kind of experiment: biochemical. On the set-up: species or system influenza A viruses.
Series [7] relates to A/PR/8/34 (H1N1). The experiment in a line: microbe, parasite or virus in culture. Particulars: Influenza A virus, MDCK, 72 h.
In series [8] the test system is phosphorylation of MEK1/2. The experiment in a line: Western blot of p-MEK1/2 in influenza-infected MDCK cells. The series is classed as cell-based, canine. The conditions noted are these: 20 μM, 10 h, all strains.
The test system of a further series is influenza vRNA (M gene). Format: cell-based, influenza virus. Particulars: 20 μM, all virus strains, at 12 and 18 h, vs infected/untreated cells (0.5% DMSO).
Series [9] concerns A/Chicken/Korea/MS96/96 (H9N2). As to the kind of experiment: microbe, parasite or virus in culture. The conditions noted are these: Influenza A virus, H9N2, MDCK, in Gallus gallus, 72 h.
Series [10] has as its system A/Chicken/Korea/MS96/96 (H9N2). Particulars: dog.
The subject of the next series is ERK phosphorylation. The experiment in a line: Western blot of p-ERK in influenza-infected MDCK cells. Format: cell-based, canine. Particulars: 10 h; for viral-infection-induced ERK phosphorylation: 20 μM.
Another series deals with influenza virus NP. Format: cell-based.
The subject of another series is p-Akt (Serine 473). As to the kind of experiment: Western blot of p-Akt in influenza-infected MDCK cells. Format: cell-based, canine. Particulars: 20 μM, after viral infection, vs viral-infected/untreated cells.
The test system of series [11] is A/Hong Kong/8/68 (H3N2). The experiment in a line: microbe, parasite or virus in culture. Particulars: Influenza A virus, H3N2, MDCK, 72 h.
In series [12] the test system is A/Hong Kong/8/68 (H3N2). As to the kind of experiment: in vitro. Particulars: dog, SI (selective index, CC50/IC50).
For series [13], the system named is A/Hong Kong/8/68 (H3N2). The conditions noted are these: dog.
[14] abbreviates: 20 μM, all three strains, 10 h after infection.

Where two headings read alike, the source gives them in different places. A value given as a limit tells only on which side of the number the result lay.

neuraminidase from A/PR/8/34 (H1N1), sequence (P03468 whole entry, looked up): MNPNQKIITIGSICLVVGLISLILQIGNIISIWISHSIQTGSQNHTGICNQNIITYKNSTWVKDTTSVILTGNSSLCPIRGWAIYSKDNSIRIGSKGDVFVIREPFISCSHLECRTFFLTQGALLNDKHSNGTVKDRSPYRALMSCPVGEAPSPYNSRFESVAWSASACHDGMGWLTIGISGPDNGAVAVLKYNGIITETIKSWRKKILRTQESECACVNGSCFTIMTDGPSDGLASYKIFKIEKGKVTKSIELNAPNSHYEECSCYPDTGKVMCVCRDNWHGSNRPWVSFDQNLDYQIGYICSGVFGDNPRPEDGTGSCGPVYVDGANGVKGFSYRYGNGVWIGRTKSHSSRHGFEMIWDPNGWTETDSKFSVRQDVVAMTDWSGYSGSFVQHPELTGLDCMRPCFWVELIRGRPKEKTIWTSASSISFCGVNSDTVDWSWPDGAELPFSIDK

As for `CC(C)c1cc2c(cc1O)[C@@]1(C)CCC[C@@](C)(CO)[C@@H]1CC2` [Compound 1, 18-hydroxyferruginol], the “reduction of influenza vRNA levels (NP gene)” value (from here on “reduction”) in the series with influenza vRNA (NP gene) (setting [14]) was 2–2.5 fold. Moreover, the “accumulation of viral protein NS1” value with influenza virus NS1 was “markedly decreased”. The “influenza RNP export from the nucleus to the cytoplasm” value in series [1] was “reduction in influenza RNP export from the nucleus to the cytoplasm”. Besides, the entries for the “SI (selective index, CC50/IC50)” value (with A/PR/8/34 (H1N1) [2]; in series [10]) were 2.61 and 2.77, respectively. Also, the 50% inhibitory concentration (IC50) in series [3] is 82.2 µM; in series [6] it was > 100 µM; with A/PR/8/34 (H1N1) [7] it was 13.6 ± 1.4 µM; in series [9], 12.8 ± 0.1 µM. Further, the selectivity ratio in series [4] came to 1.79; in the series on A/PR/8/34 (H1N1) [5] it was 1.68. Also, in “in vitro”, the CC50 stood at 35.5 ± 0.4 µM. Also, the “phosphorylation of MEK1/2 induced by infection” value in series [8] is given as “inhibited”. Further, the “decrease of influenza vRNA levels (M gene)” value with influenza vRNA (M gene) is recorded as 65.3–91.6%. In the series with ERK phosphorylation, the “viral-infection-induced ERK phosphorylation” value was “inhibited viral-infection-induced ERK phosphorylation”. Also, in the series on influenza virus NP, the “levels of influenza virus NP” value was “reduction in the levels of influenza virus NP”. In the series on p-Akt (Serine 473), the p-Akt levels entry was “decreased p-Akt levels”. Further, the “toxic effect on MDCK cells” value in the series on MDCK cells was “no toxic effect”.
Turning to `CC(C)c1cc2c(cc1O)[C@@]1(C)CCC[C@@](C)(C=O)[C@@H]1CC2` [Compound 2, 18-oxoferruginol], the “reduction” value with influenza vRNA (NP gene) (setting [14]) is reported as 2–3 fold. In the series with influenza virus NS1, the “accumulation of viral protein NS1” value is recorded as “markedly decreased”. In addition, the IC50 in the series on A/Hong Kong/8/68 (H3N2) [11] was 29.2 ± 1.9 µM; in series [3], > 100 µM; in [6], > 100 µM; in the series on A/PR/8/34 (H1N1) [7], 18.3 ± 6.5 µM; in [9] it was 10.8 ± 2.2 µM. For the same compound, the “influenza RNP export from the nucleus to the cytoplasm” value in [1] is listed as “reduction in influenza RNP export from the nucleus to the cytoplasm”. Besides, the “SI (selective index, CC50/IC50)” value was determined as 2.25 in the series with A/PR/8/34 (H1N1) [2], 3.81 in series [10] and 1.41 in the series with A/Hong Kong/8/68 (H3N2) [13]. Moreover, the selectivity ratio is 3.6 in series [4], 2.13 in the series on A/PR/8/34 (H1N1) [5] and 1.33 in the series with A/Hong Kong/8/68 (H3N2) [12]. This compound displayed a CC50 in “in vitro” of 41.2 ± 1.5 µM. Besides, in series [8], the “phosphorylation of MEK1/2 induced by infection” value is given as “inhibited”. Also, the “decrease of influenza vRNA levels (M gene)” value in the series on influenza vRNA (M gene) is 60.7–92.4%. In the series with ERK phosphorylation, the “viral-infection-induced ERK phosphorylation” value is listed as “inhibited viral-infection-induced ERK phosphorylation”. Further, the “levels of influenza virus NP” value in the series on influenza virus NP is “reduction in the levels of influenza virus NP”. The p-Akt levels entry in the series on p-Akt (Serine 473) is recorded as “decreased p-Akt levels”. For the same compound, the “toxic effect on MDCK cells” value with MDCK cells was “no toxic effect”.
As for `O=c1cc(N2CCOCC2)oc2c(-c3ccccc3)cccc12` [LY294002, reference compound], the “reduction” value in the series with influenza vRNA (NP gene) (50 μM, all three strains, 10 h after infection) is 3.3–5.2 fold. Besides, the ERK phosphorylation entry with ERK phosphorylation (50 μM) is given as “strongly inhibited ERK phosphorylation”.
For `CCOC(=O)C1=C[C@@H](OC(CC)CC)[C@H](NC(C)=O)[C@@H](N)C1` [Olseltamivir, oseltamivir, reference compound], the IC50 in the series on A/Hong Kong/8/68 (H3N2) [11] is 1.09 ± 0.5 µM; in the series on A/PR/8/34 (H1N1) [7], 1.35 ± 1.2 µM; in [9], < 0.7 µM. Also, the CC50 in “in vitro” is > 500 µM.
For the compound `COc1cccc(-c2cc(=O)c3ccccc3o2)c1N` [PD98059, reference compound], the “reduction” value in the series on influenza vRNA (NP gene) is recorded as 4.3–9.1 fold.
